Patent US12473303B2, “4-[[(7-aminopyrazolo[1,5-a]pyrimidin-5-yl)amino methyl]piperidin-3-ol compounds and their therapeutic use” (CARRICK THERAPEUTICS LIMITED, priority 2019, dated 2025)
“Also recorded” adds a separate entry of the source. Like-named read-outs stand apart in the source and are kept apart here.

Columns and labels:
[1] = system: Cyclin K; design: key to Cyclin K Degrader Activity: −: No Cyclin K degradation.; +: Weak Cyclin K degradation.; ++: Moderate Cyclin K degradation.; +++: Strong Cyclin K degradation; details: cited from earlier work; for Cyclin K degradation (in words): literature
[2] = system: HeLa and A549 cells; details: Table 2, cited from earlier work
[3] = molecular target: Human CDK12 wt/CycK (Homo sapiens (Human), UniProt Q9NYV4); test: Radiometric protein kinase assay (33PanQinase Activity Assay), CDK12; format: biochemical
Method in brief: (§1)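 Radiometric 33P assay: ATP, test compound (in 10% DMSO) and premixed substrate/enzyme incubated 60 min at 30 °C, stopped with 2% H3PO4. 33Pi incorporation counted by scintillation; least-squares curve fit.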

[4] = molecular target: Human CDK7/CycH/MAT1 (Homo sapiens (Human), UniProt P50613); test: Radiometric protein kinase assay (33PanQinase Activity Assay), CDK7; format: biochemical; details: Table 1; ATP 3 μM
Method in brief: as §1

[5] = system: A673 cells; test: Cellular potency in A673 cells; format: cell-based; details: for IC50: Homo sapiens, A673 cells
[6] = system: Cyclin K; test: Western blotting analysis of Cyclin K depletion in cell culture; format: cell-based; details: Table 2; A673 cells, 1 μM compound, 2 hours
Description: Western Blotting Analysis of Cyclin K Depletion in Cell Culture A673 cells were incubated for 2 hours with of 1 μM compound in presence or in absence of 10 μM proteasome inhibitor MG132 (Sigma Aldrich) or NAE (NEDD8 activating enzyme) inhibitor […] (Cell Signalling Technologies). Cells were washed 2× with cold Phosphate Buffered Saline (PBS, Sigma Aldrich), followed by the addition of lysis buffer for 15 minutes on ice before harvesting and centrifugation.
Protein content in the cell lysate was assessed by BCA assay (Thermo Fisher). Samples were then prepared with 4× Laemmlli Buffer (Bio-Rad) and heated to 95° C. for 5 minutes. Each sample was loaded onto a Mini-PROTEAN TGX Stain Free Gel (Bio-Rad) at 50 μg protein/well. SDS-PAGE was performed and then protein was transferred onto a PVDF membrane using a Trans-Blot® Turbo™ Midi PVDF Transfer Pack (Bio-Rad. Membranes were blocked in TBS-T (Invitrogen), 5% (w/v) milk powder (Marvel) overnight at 4° C.
Membranes were incubated with anti-CCNK antibody (rabbit) primary antibody (Abcam) and anti-GAPDH antibody (rabbit) in TBS-T for 2 hours. Membranes were then washed three times with TBS-T, before incubation secondary goat anti-rabbit HRP antibody (Cell Signalling Technologies) followed by 3× washing in TBS-T. Blots were imaged using a Chemidoc imager (Bio-Rad). Cyclin K depletion was measured as the observable drop in band intensity in compound treated samples relative to proteasome-inhibitor treated samples, measured by densitometry (Image Lab).

Human CDK12 wt/CycK, sequence (Q9NYV4 whole entry): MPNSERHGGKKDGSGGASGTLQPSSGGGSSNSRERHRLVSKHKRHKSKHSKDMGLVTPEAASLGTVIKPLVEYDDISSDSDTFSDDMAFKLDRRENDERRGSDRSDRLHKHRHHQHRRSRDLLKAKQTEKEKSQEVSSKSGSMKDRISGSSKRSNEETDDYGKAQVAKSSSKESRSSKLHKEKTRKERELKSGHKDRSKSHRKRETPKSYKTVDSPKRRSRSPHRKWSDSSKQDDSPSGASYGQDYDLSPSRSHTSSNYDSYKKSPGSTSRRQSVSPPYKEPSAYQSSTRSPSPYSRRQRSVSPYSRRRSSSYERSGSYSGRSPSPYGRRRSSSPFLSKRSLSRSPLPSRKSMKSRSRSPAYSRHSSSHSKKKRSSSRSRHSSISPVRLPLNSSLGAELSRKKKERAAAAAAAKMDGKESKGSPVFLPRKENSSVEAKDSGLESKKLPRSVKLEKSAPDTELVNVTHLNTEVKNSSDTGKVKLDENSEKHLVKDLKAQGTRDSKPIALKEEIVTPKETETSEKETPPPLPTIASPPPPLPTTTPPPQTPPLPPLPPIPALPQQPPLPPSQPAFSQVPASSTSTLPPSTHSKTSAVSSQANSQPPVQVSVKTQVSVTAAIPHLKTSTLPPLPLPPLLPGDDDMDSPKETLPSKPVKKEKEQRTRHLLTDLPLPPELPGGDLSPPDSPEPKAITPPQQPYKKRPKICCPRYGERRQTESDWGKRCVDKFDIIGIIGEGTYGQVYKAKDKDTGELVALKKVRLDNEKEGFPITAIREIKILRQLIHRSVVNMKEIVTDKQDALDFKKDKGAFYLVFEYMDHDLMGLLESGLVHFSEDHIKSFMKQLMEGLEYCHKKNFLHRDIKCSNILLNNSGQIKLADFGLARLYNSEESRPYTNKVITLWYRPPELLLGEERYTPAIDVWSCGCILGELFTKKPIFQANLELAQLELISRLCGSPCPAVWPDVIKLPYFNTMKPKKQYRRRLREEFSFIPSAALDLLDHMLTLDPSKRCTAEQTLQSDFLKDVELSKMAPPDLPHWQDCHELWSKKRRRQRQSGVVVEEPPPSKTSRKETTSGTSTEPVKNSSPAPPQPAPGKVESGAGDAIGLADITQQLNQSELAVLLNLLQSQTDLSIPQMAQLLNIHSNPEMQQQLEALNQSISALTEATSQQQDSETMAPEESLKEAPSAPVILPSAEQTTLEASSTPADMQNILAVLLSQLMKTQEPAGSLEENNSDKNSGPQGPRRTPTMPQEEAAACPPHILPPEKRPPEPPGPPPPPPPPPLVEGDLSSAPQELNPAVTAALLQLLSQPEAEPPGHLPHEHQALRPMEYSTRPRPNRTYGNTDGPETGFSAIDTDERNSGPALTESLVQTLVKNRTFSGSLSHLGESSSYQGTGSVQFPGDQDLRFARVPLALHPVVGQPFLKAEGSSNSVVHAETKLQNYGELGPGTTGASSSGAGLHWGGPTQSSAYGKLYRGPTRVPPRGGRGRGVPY
Human CDK12 wt/CycK, sequence (O75909 whole entry partner): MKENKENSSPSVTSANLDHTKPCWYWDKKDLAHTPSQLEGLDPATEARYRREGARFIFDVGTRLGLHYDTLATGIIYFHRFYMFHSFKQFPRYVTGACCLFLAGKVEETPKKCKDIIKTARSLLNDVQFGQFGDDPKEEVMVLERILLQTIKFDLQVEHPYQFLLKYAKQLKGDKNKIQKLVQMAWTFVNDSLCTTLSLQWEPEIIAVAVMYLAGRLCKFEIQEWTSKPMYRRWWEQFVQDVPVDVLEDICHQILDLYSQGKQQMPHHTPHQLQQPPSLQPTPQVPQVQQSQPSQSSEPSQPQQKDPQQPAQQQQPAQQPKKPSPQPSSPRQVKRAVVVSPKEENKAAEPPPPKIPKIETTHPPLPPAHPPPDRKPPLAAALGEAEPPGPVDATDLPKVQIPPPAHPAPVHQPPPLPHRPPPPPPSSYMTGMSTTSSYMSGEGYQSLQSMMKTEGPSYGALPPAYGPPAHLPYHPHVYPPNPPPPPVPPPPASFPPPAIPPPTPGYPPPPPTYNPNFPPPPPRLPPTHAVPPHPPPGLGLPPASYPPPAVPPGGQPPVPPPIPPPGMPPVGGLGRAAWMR
Human CDK7/CycH/MAT1, sequence (P50613 whole entry): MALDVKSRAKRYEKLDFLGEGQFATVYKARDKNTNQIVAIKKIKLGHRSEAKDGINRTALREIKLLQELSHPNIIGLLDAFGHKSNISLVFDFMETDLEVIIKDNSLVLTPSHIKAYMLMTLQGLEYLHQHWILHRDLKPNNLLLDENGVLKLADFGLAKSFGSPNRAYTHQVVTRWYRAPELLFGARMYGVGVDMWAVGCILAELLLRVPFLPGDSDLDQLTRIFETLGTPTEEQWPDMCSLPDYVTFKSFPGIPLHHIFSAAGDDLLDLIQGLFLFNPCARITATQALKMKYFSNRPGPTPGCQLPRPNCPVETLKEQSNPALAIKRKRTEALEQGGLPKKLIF
Human CDK7/CycH/MAT1, sequence (P51946 whole entry partner): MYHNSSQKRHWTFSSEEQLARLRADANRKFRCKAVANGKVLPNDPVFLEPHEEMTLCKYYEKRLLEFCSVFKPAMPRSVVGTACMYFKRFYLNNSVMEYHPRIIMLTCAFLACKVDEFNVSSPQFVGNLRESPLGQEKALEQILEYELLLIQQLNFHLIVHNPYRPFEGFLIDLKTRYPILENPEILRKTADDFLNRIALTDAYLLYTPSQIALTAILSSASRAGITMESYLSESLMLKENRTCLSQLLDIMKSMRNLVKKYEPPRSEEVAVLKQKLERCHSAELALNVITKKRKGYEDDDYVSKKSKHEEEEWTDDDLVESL
Human CDK7/CycH/MAT1, sequence (P51948 whole entry partner): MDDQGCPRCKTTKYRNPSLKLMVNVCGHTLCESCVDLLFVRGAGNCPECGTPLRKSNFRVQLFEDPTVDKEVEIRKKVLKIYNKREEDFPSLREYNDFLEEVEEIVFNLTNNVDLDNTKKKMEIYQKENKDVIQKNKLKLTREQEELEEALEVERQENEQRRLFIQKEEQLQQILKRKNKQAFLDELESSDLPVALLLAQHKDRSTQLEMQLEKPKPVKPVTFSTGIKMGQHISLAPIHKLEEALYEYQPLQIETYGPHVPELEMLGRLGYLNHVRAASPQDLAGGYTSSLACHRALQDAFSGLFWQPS

Row | IC50 ([3]; Table 1, ATP 0.3 μM, read-out: CDK12 IC50) | CDK7/CDK12 ([3]; Table 1, ratio greater than 1 indicated selectivity for CDK12) | IC50 ([3]; Table 2, CDK12 kinase activity, read-out: Biochemical Potency IC50) | IC50 ([3]; Table 3, CDK12 kinase activity, read-out: Biochemical Potency IC50) | IC50 [4] | IC50 ([5]; A673, Table 2) | IC50 ([5]; A673, Table 3) | SMILES | Cyclin K degradation (in words) [1] | IC50 ([2]; derived from published data in HeLa and A549 cells, read-out: Cellular Potency IC50) | Ratio of Biochemical Potency: Cellular Potency ([2]; derived from published data) | Cyclin K Degrader Activity ([1]; Table 2, derived from published data in HeLa and A549 cells) | Ratio of Biochemical Potency: Cellular Potency ([5]; Table 2) | Ratio of Biochemical Potency: Cellular Potency ([5]; Table 3, ratio >0.9 is an indicator of Cyclin K degradation) | Cyclin K Degrader Activity [6]
1 |  |  |  |  |  |  |  | CC[C@H](CO)Nc1nc(NCc2ccc(-c3ccccn3)cc2)c2ncn(C(C)C)c2n1 [CR8] | cause Cyclin K degradation |  |  |  |  |  | 
2 |  |  |  |  |  |  |  | CN(C)C/C=C/C(=O)Nc1ccc(C(=O)N2CCC[C@@H](Nc3ncc(Cl)c(-c4c[nH]c5ccccc45)n3)C2)cc1 [THZ-531] | not cyclin K degraders; also recorded: did not cause cyclin K degradation | 210 nM | 0.74 | − |  |  | 
3 | 21 nM | 23 | 21 nM | 21 nM | 484 nM | 340 nM | 340 nM | Cc1cc(C)n2cc(CNc3cc(NC[C@H]4CCNC[C@@H]4O)nc4c(C(C)C)cnn34)nc2n1 [H-APPAMP-043, (3R,4R)-4-(((7-(((5,7-dimethylimidazo[1,2-a]pyrimidin-2-yl)methyl)amino)-3-isopropylpyrazolo[1.5-a]pyrimidin-5-yl)amino)methyl)piperidin-3-ol] |  |  |  |  | 0.06 | 0.06 | −
